Assay results reported in ChEMBL document CHEMBL4840348, “Total Syntheses and Anti-inflammatory Activities of Syringin and Its Natural Analogues” (J Nat Prod, 2021).
pIC50: −log10 of the molar value.

Tests used:
RAW264.7 [1] = assay: Cytotoxicity against mouse RAW264.7 cells assessed as reduction in cell viability at 100 uM measured after 24 hrs by MTT assay; type: cell-based; settings: raw264.7, 24 h
RAW264.7 [2] = assay: Antiinflammatory activity in mouse RAW264.7 cells assessed as inhibition of LPS-induced NO production pretreated with compound for 2 hrs followed by LPS stimulation measured after 18 hrs by gGriess reagent based assay; type: functional, cell-based

SMILES	Activity (RAW264.7 [1])	pIC50 (RAW264.7 [2])
COc1cc(CCCO)cc(OC)c1O[C@@H]1O[C@H](CO)[C@@H](O)[C@H](O)[C@H]1O [DIHYDROSYRINGIN]	Non-Toxic	< 4.00
COC/C=C/c1cc(OC)c(O[C@@H]2O[C@H](CO)[C@@H](O)[C@H](O)[C@H]2O)c(OC)c1	Non-Toxic	4.84
COc1cc(/C=C/CO)cc(OC)c1O[C@@H]1O[C@H](CO)[C@@H](O)[C@H](O)[C@H]1O [SYRINGIN]	Non-Toxic	4.76
COc1cc(/C=C/C=O)cc(OC)c1O[C@@H]1O[C@H](CO)[C@@H](O)[C@H](O)[C@H]1O [SINAPALDEHYDE GLUCOSIDE]	Non-Toxic	< 4.00
COc1cc(/C=C/C(=O)O)cc(OC)c1O[C@@H]1O[C@H](CO)[C@@H](O)[C@H](O)[C@H]1O	Non-Toxic	4.73
CCOC/C=C/c1cc(OC)c(O[C@@H]2O[C@H](CO)[C@@H](O)[C@H](O)[C@H]2O)c(OC)c1	Non-Toxic	< 4.00
Cc1ccc(-c2cc(C(F)(F)F)nn2-c2ccc(S(N)(=O)=O)cc2)cc1 [CELECOXIB]	–	5.64
COc1cc([C@H](O)[C@H](O)CO)cc(OC)c1O[C@@H]1O[C@H](CO)[C@@H](O)[C@H](O)[C@H]1O	Non-Toxic	4.60
COc1cc(/C=C/COC/C=C/c2cc(OC)c(O[C@@H]3O[C@H](CO)[C@@H](O)[C@H](O)[C@H]3O)c(OC)c2)cc(OC)c1O[C@@H]1O[C@H](CO)[C@@H](O)[C@H](O)[C@H]1O	Non-Toxic	< 4.00
COC(=O)/C=C/c1cc(OC)c(O[C@@H]2O[C@H](CO)[C@@H](O)[C@H](O)[C@H]2O)c(OC)c1	Non-Toxic	4.69
COc1cc(/C=C/CO[C@@H]2O[C@H](CO)[C@@H](O)[C@H](O)[C@H]2O)cc(OC)c1O[C@@H]1O[C@H](CO)[C@@H](O)[C@H](O)[C@H]1O	Non-Toxic	4.78
COc1cc([C@@H](O)[C@@H](O)CO)cc(OC)c1O[C@@H]1O[C@H](CO)[C@@H](O)[C@H](O)[C@H]1O	Non-Toxic	4.81
CCCCOC/C=C/c1cc(OC)c(O[C@@H]2O[C@H](CO)[C@@H](O)[C@H](O)[C@H]2O)c(OC)c1	Non-Toxic	< 4.00
